Experimental data published in patent US20210038607A1, “OXADIAZOLYLTHIOPHENE DERIVATIVES USEFUL AS HISTONE DEACETYLASE INHIBITORS” (Karus Therapeutics Limited, priority 2018, published 2021).

Experiments:
Human HDAC10 = target: T1, Human HDAC10 (Homo sapiens, UniProt Q969S8); test: HDAC10 biochemical assay, AMC-labeled peptide substrate; conditions: read-out: HDAC Isoform IC50 (nM) 10
T1 construct: Human HDAC10 (a.a. 1-481); GST (N); His (C); host or cells: baculovirus expression system
T1 sequence (Q969S8 1-481): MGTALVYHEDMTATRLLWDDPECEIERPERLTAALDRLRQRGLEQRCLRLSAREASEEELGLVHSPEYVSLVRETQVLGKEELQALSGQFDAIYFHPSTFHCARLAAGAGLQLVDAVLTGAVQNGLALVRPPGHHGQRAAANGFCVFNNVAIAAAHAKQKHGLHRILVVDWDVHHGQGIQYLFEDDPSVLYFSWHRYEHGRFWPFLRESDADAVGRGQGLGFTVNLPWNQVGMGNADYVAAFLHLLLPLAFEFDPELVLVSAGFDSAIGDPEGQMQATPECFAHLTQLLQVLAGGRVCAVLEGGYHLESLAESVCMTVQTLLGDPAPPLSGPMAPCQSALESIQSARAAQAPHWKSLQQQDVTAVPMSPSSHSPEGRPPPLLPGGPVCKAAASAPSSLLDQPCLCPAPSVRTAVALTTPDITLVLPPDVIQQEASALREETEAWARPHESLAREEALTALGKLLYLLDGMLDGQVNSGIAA
Summary of the method: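 Two-step fluorogenic read-out (Ex/Em 360/460) after developer digestion of deacetylated RHKK(Ac)AMC (50 μM). Deacetylation ran 2 h at 30 °C with 12 ng/ul HDAC10 (aa 1-481, GST/His tags, baculovirus) in Tris-HCl pH 8.0, BSA, 1% DMSO.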

Human HDAC2 = target: T2, Human HDAC2 (Homo sapiens, UniProt Q92769); test: HDAC2 biochemical assay, AMC-labeled peptide substrate; conditions: read-out: HDAC Isoform IC50 (nM) 2
T2 construct: full length with C-terminal GST-tag; GST (C); host or cells: baculovirus expression system
T2 sequence (Q92769 whole entry, canonical isoform): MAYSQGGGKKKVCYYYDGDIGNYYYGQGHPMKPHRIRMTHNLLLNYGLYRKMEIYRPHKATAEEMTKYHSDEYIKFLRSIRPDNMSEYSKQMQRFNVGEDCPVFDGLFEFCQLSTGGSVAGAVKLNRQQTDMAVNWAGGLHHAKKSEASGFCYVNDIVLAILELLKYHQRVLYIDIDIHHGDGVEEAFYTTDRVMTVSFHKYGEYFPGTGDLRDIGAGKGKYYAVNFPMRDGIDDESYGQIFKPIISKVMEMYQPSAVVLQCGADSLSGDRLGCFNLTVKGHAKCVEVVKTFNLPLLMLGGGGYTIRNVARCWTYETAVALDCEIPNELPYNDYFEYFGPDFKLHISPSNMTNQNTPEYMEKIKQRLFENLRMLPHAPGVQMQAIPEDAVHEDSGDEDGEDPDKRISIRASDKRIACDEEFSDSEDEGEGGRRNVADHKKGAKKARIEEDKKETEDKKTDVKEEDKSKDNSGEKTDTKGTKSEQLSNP
Summary of the method: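 Full-length human HDAC2 with C-terminal GST tag, baculovirus-expressed, at 0.07 ng/ul with 50 μM RHKK(Ac)AMC substrate in Tris-HCl pH8.0 buffer with BSA, 1% DMSO final. Incubated 1 hour at 30° C with compounds, then developer added; fluorescence read at 360/460 Ex/Em.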

Human HDAC9 = target: T3, Human HDAC9 (Homo sapiens, UniProt Q9UKV0); test: HDAC9 biochemical assay, class IIa-specific substrate; conditions: read-out: HDAC Isoform IC50 (nM) 9
T3 construct: amino acids 604-1066 with C-terminal His tag; His (C); host or cells: baculovirus expression system
T3 sequence (Q9UKV0 604-1066 isoform Q9UKV0-5): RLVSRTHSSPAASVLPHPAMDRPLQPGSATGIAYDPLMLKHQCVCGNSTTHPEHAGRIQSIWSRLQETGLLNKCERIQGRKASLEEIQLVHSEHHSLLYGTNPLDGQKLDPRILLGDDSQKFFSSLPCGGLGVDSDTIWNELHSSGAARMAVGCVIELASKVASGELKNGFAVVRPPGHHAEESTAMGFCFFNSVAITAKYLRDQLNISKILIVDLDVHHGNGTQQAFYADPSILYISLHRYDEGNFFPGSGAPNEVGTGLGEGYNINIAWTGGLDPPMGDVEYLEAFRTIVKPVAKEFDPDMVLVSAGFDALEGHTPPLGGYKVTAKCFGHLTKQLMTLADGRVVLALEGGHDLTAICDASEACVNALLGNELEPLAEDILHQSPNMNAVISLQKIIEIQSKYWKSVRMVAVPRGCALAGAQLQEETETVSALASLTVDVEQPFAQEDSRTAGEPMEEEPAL
Summary of the method: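 HDAC9 residues 604-1066 (C-terminal His tag, baculovirus-expressed) at 0.06 ng/ul with 50 μM class IIa substrate Boc-Lys(trifluoroacetyl)-AMC in Tris-HCl pH 8.0 buffer with BSA and 1% DMSO. 30 min at room temperature, then developer added; fluorescence read at 360/460 nm Ex/Em.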

Human HDAC1 = target: T4, Human HDAC1 (Homo sapiens, UniProt Q13547); test: HDAC1 biochemical assay, AMC-labeled peptide substrate; conditions: read-out: HDAC Isoform IC50 (nM) 1
T4 construct: full length with C-terminal His-tag and C-terminal FLAG-tag; His (C); FLAG (C); host or cells: baculovirus expression system
T4 sequence (Q13547 whole entry, canonical isoform): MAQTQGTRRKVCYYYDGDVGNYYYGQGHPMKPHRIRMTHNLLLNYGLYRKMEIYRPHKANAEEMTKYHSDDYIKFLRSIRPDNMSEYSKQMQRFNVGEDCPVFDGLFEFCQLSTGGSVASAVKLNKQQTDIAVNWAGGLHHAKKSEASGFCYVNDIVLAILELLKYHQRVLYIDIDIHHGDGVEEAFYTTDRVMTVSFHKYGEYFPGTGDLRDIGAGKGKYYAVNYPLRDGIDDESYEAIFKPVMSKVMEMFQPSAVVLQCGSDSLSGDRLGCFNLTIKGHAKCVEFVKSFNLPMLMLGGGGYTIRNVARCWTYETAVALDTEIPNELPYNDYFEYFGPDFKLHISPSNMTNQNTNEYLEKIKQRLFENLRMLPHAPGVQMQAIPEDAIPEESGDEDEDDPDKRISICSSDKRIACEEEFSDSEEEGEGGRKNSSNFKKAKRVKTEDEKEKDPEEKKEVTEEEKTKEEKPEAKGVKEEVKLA
Summary of the method: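 Two-step fluorogenic read: HDAC1 deacetylates 50 μM acetyl-lysine AMC peptide RHKK(Ac)AMC for 1 h at 30° C (pH 8.0, 1% DMSO, with compound), then developer digests the product for fluorescence at Ex/Em 360/460. Enzyme is full-length human, His/FLAG-tagged, insect-cell expressed, at 0.3 ng/ul.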

Human HDAC7 = target: T5, Human HDAC7 (Homo sapiens, UniProt Q8WUI4); test: HDAC7 biochemical assay, class IIa-specific substrate; conditions: read-out: HDAC Isoform IC50 (nM) 7
T5 construct: (a.a. 518-end) with N-terminal GST tag; GST (N); host or cells: baculovirus expression system
T5 sequence (Q8WUI4 518-952 limits assumed): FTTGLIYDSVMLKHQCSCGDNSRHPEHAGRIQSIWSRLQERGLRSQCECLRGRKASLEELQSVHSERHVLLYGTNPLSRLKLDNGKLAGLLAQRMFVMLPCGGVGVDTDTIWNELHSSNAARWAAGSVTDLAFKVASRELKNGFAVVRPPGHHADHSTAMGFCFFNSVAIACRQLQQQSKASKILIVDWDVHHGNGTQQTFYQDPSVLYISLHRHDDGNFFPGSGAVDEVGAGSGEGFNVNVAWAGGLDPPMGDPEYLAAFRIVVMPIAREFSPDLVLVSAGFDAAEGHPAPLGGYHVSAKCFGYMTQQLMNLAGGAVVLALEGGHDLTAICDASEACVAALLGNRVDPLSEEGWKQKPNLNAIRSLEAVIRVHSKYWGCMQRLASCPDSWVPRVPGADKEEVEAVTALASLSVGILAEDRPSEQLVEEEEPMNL
Summary of the method: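 Two-step fluorogenic readout: class IIa-selective trifluoroacetyl-lysine AMC substrate (50 μM) deacetylated by N-terminal GST-HDAC7 fragment (0.001 ng/ul), then digested by developer, Ex/Em 360/460. Reaction: 30 min, room temperature, Tris-HCl pH 8.0, NaCl/KCl/MgCl2, 1 mg/mL BSA, 1% DMSO.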

IC50 (Human HDAC10): > 10000 nM
IC50 (Human HDAC2): > 10000 nM
IC50 (Human HDAC9): ≤ 10000 nM
IC50 (Human HDAC1): > 10000 nM
IC50 (Human HDAC7): ≤ 10000 nM
SMILES: O=C(c1nccnc1N(Cc1ccc(-c2noc(C(F)(F)F)n2)s1)c1cnccn1)N1CC(O)(C(F)(F)F)C1 [Example GQ, 1-{3-[(Pyrazin-2-yl)({5-[5-(trifluoromethyl)-1,2,4-oxadiazol-3-yl]thiophen-2-yl}methyl)amino]pyrazine-2-carbonyl}-3-(trifluoromethyl)azetidin-3-ol]
